Key:
[1] = system: brown skin surface lipid of the rats; experiment: Antiseborrheic effect: browning of the shaved back of rats, visually assessed (half-back application, 14 days); format: in vivo, male Wistar rats; details: for Sebum reduction: (ΔP/Pk)·100
From the text: The antiseborrheic effect was closely studied using the animal tests described in the following:
The test animals were male Wistar rats having a body weight of 220 to 230 g at the beginning of the tests. The degree of browning on the shaved back of the rats was visually assessed. Browning is produced by the brown skin surface lipid of the rats. This test is based on the observation that young female rats and also male rats washed with a tenside solution or with a lipid solvent and also male rats systematically treated with estrogen only have the normal light, pink-colored skin after shaving. At the same time, only comparatively very small quantities of lipids can be extracted from the shaved hair.
In order to assess effectiveness, the test substances in solution in alcohol were each brushed onto half the back of 6 rats. The other half was only treated with the solvent minus active substances.
Over the test period of 14 days, the test substances were applied once daily for a total of 9 days. A group of 6 rats which remained completely untreated was used for further control. At the end of the test, the animals were shaved on their back and sides and were visually assessed independently by an examination panel of 6 people under double blind conditions.
The first criterion evaluated was whether the majority of examiners correctly recognized the treated side, differentiation being carried out as follows:
The second criterion evaluated was the difference between the righthand side and the lefthand side, each examiner having to award 1 point per animal on the following basis:
lighter side--0 point and
both sides the same--0.5 point
Significant differences between the untreated and treated sides in the second method of evaluation indicate the local effectiveness of a substance.
The third criterion evaluated was the difference in intensity between the shades of brown using the following scale:
In the third method or evaluation, the points total differences are worked out between the untreated control animals and the treated and untreated sides of the test animals, significant differences between the control animals and the treated side of the test animals again indicating the effectiveness of a substance.
At the same time, there is generally also a distinct difference between the untreated and treated sides of the groups of test animals. However, this difference is not always as clear as that between the control animals and the treated sides, for which there may be various reasons, including for example mechanical transfer of substance from one side to the other or solvent influence.
The following scheme was used for differentiating the effects according to evaluation methods 2 and 3:
Percentage sebum reduction
The sebum reduction is calculated from the points difference by working out the quotient between the points difference ΔP and the number of points for the control group Pk and expressing the value obtained in percent.
Sebum reduction=(ΔP/Pk)·100[%]

[2] = system: seborrhea / production of sebum; details: background art; cited from earlier work

Row | Compound | Evaluation method 1 (percentage of examiners noticing an effect) ([1]; Conc. 0.1% in alcohol) | Evaluation method 2 (points difference between treated and untreated side) ([1]; Conc. 0.1% in alcohol) | Evaluation method 3 (difference in intensity between shades of brown vs untreated control animals) ([1]; Conc. 0.1% in alcohol) | Sebum reduction ([1]; Conc. 0.1% in alcohol) | Evaluation method 1 (percentage of examiners noticing an effect) ([1]; Conc. 1.0% in alcohol) | Evaluation method 2 (points difference between treated and untreated side) ([1]; Conc. 1.0% in alcohol) | Evaluation method 3 (difference in intensity between shades of brown vs untreated control animals) ([1]; Conc. 1.0% in alcohol) | Sebum reduction ([1]; Conc. 1.0% in alcohol) | further results
1 | CCCCCCCCCCOc1ccc(C(=O)OCCOC)cc1 [A, p-decyloxybenzoic acid 2-methoxy-ethyl ester] | ++ (100%) | ++ (very large (≥99.9% probability)) | ++ (very large (≥99.9% probability)) | 69% | ++ (100%) | ++ (very large (≥99.9% probability)) | ++ (very large (≥99.9% probability)) | 100% | –
2 | CCCCCCCCCCOc1ccc(C(=O)OCCOCC)cc1 [B, p-decyloxybenzoic acid 2-ethoxy-ethyl ester] | ++ (100%) | ++ (very large (≥99.9% probability)) | ++ (very large (≥99.9% probability)) | 30% | ++ (100%) | ++ (very large (≥99.9% probability)) | ++ (very large (≥99.9% probability)) | 93% | –
3 | CCCCCCCCCCOc1ccc(C(=O)OCCOCCOC)cc1 [C, p-decyloxybenzoic acid 2-(2-methoxyethoxy)-ethyl ester] | ++ (100%) | ++ (very large (≥99.9% probability)) | ++ (very large (≥99.9% probability)) | 26% | ++ (100%) | ++ (very large (≥99.9% probability)) | ++ (very large (≥99.9% probability)) | 100% | –
4 | CCCCCCCCCCOc1ccc(C(=O)OCCO)cc1 [D, p-decyloxybenzoic acid 2-hydroxy-ethyl ester] | – | – | – | – | ++ (100%) | ++ (very large (≥99.9% probability)) | ++ (very large (≥99.9% probability)) | 98% | –
5 | CCCCCCCCCCOc1ccc(C(=O)OCCN(CC)CC)cc1 [E, p-decyloxybenzoic acid 2-diethylaminoethyl ester] | ++ (100%) | ++ (very large (≥99.9% probability)) | ++ (very large (≥99.9% probability)) | 80% | ++ (100%) | ++ (very large (≥99.9% probability)) | ++ (very large (≥99.9% probability)) | 90% | –
6 | CCCCCCCCCCCCOc1ccc(C(=O)OCCOC)cc1 [F, p-dodecyloxybenzoic acid 2-methoxy-ethyl ester] | – | – | – | – | ++ (100%) | ++ (very large (≥99.9% probability)) | ++ (very large (≥99.9% probability)) | 91% | Evaluation method 1 (percentage of examiners noticing an effect) ([1]; Conc. 0.2% in alcohol): ++ (100%); Evaluation method 2 (points difference between treated and untreated side) ([1]; Conc. 0.2% in alcohol): ++ (very large (≥99.9% probability)); Evaluation method 3 (difference in intensity between shades of brown vs untreated control animals) ([1]; Conc. 0.2% in alcohol): ++ (very large (≥99.9% probability)); Sebum reduction ([1]; Conc. 0.2% in alcohol): 92%
7 | CCCCCCCCCCOc1ccc(C(=O)OCC(=O)OC)cc1 [G, p-decyloxybenzoyloxy-acetic acid methyl ester] | – | – | – | – | – | – | – | – | Evaluation method 1 (percentage of examiners noticing an effect) ([1]; Conc. 0.5% in alcohol): ++ (100%); Evaluation method 2 (points difference between treated and untreated side) ([1]; Conc. 0.5% in alcohol): ++ (very large (≥99.9% probability)); Evaluation method 3 (difference in intensity between shades of brown vs untreated control animals) ([1]; Conc. 0.5% in alcohol): ++ (very large (≥99.9% probability)); Sebum reduction ([1]; Conc. 0.5% in alcohol): 82%
8 | CCN(CC)C(=O)c1cccc(C)c1 [N,N-diethyl-m-toluamide] | – | – | – | – | – | – | – | – | sebosuppressive / antiseborrheic effect of known substances [2]: neither N,N-diethyl-m-toluamide nor phenylpentadienoic acid show, however, fully satisfactory sebosuppressive properties
9 | O=C(O)C=CC=Cc1ccccc1 [phenylpentadienoic acid] | – | – | – | – | – | – | – | – | sebosuppressive / antiseborrheic effect of known substances [2]: neither N,N-diethyl-m-toluamide nor phenylpentadienoic acid show, however, fully satisfactory sebosuppressive properties

From patent US4503244A, “Sebosuppressive topical cosmetic preparations containing alkoxybenzoic acid esters, process for inhibiting sebum production and alkoxybenzoic acid esters” (Henkel Kommanditgesellschaft, priority 1983, dated 1985)
